The values below come from PMC3723409 (Basic & clinical pharmacology & toxicology, 2009).

The conditions of data set [1]: human, in vivo.
The conditions of data set [2]: in vivo interaction with buprenorphine; cited from earlier work.
The conditions of data set [3]: with lopinavir/ritonavir; cited from earlier work.

Read-outs that look alike come from different tables or passages of the source.

`CO[C@]12CC[C@@]3(C[C@@H]1[C@](C)(O)C(C)(C)C)[C@H]1Cc4ccc(O[C@@H]5O[C@H](C(=O)O)[C@@H](O)[C@H](O)[C@H]5O)c5c4[C@@]3(CCN1CC1CC1)[C@H]2O5` [B3G, buprenorphine-3-glucuronide]: the “Change in renal clearance” value in data set [1] is “No significant changes”.
`Cc1c(O)cccc1C(=O)N[C@@H](CSc1ccccc1)[C@H](O)CN1C[C@H]2CCCC[C@H]2C[C@H]1C(=O)NC(C)(C)C` [nelfinavir]: in data set [2], the “Effect on pharmacokinetics / metabolism of buprenorphine” value (shortened to “Effect on pharmacokinetics / metabolism”) was “neither nelfinavir nor the combination of lopinavir/ritonavir had any significant effect”.
Take `O=C1Nc2ccc(Cl)cc2[C@@](C#CC2CC2)(C(F)(F)F)O1` [efavirenz]: the “Effect on pharmacokinetics / metabolism” value in data set [2] is “induction”.
For `C[C@H](Cn1cnc2c(N)ncnc21)OCP(=O)(O)O` [tenofovir], the “Change in renal clearance” value in data set [3] is reported as “decrease”.
In the case of `CC(C)Nc1cccnc1N1CCN(C(=O)c2cc3cc(NS(C)(=O)=O)ccc3[nH]2)CC1` [delavirdine], the “Effect on pharmacokinetics / metabolism” value in data set [2] was “inhibition of buprenorphine metabolism”.
With `CC(C)c1nc(CN(C)C(=O)N[C@H](C(=O)N[C@@H](Cc2ccccc2)C[C@H](O)[C@H](Cc2ccccc2)NC(=O)OCc2cncs2)C(C)C)cs1` [ritonavir], the “Effect on pharmacokinetics / metabolism” value in data set [2] was “increased exposure to buprenorphine”.
